≈ marks a conversion by molar mass, not a printed value.
Tests used:
C. albicans = test: Preservation challenge test in O/W emulsion base #1, log reduction of viable microorganisms by plate count; format: cell-based; details: combined with another antimicrobial component in base #1, up to 28 days, FIGS. 20 to 25
Procedure: (§1) An O/W emulsion (base #1) was prepared as follows, and n-heptyl glyceryl ether, further antimicrobial compounds and combinations thereof were added to these bases:
(§2) Processing: • 1. Premix phase A and B separately and heat up to 78° C. • 2. Add phase A1 to A under stirring and wait until everything is dissolved. • 3. Add phase B to A under stirring. (Speed 6, for 30 sec.) Homogenize for 90 sec. using an Ultra Turrax. • 4. Cool down using a water bath • 5. Adjust pH.
(§3) Preparatory to the test, the surface of casein soya bean digest agar for bacteria or Saboraud-dextrose agar without the addition of antibiotics for fungi is inoculated with the recently grown stock culture of each of the specified microorganisms. […]
(§4) To count the viable microorganisms in the inoculated products, the agar medium used for the initial cultivation of the respective microorganism is used. […] At zero hour and at 7, 14 and 28 days 1 ml is removed from the sample and the number of viable microorganisms is determined by plate count. […]
To determine the efficacy of the antimicrobial composition, n-heptyl glyceryl ether, another antimicrobial compound and combinations thereof were incorporated into base #1 as shown above. The antimicrobial activity against C. albicans was then evaluated as described above. […]

A. brasiliensis = test: as above; format: cell-based; details: combined with another antimicrobial component in base #1, up to 28 days, FIGS. 1 to 12
S. aureus = test: as above; format: cell-based; details: combined with another antimicrobial component in base #1, up to 28 days, FIGS. 12 to 19
Procedure: as §1, §2, §3, §4
To determine the efficacy of the antimicrobial composition, n-heptyl glyceryl ether, another antimicrobial compound and combinations thereof were incorporated into base as shown above. The antimicrobial activity against S. aureus was then evaluated as described above. […]

[1] = Water solubility / critical micelle concentration of n-heptyl-glyceryl ether; format: physicochemical; details: water, without component B); read-out: water solubility before micelles are forming
Excerpt: N-heptyl-glyceryl ether has a water solubility of approximately 2 g/l before micelles are forming.

Which results are given for CCCCC(CC)COCC(O)CO (stereo not shown) [ethylhexyl glycerin, reference compound]?
synergistic antimicrobial effect (log 10 reduction of combination greater than sum of individual components) (C. albicans): No such synergism; synergistic antimicrobial effect (log 10 reduction of combination greater than sum of individual components) (A. brasiliensis): No such synergism; synergistic antimicrobial effect (log 10 reduction of combination greater than sum of individual components) (S. aureus): No such synergism

Which “synergistic antimicrobial effect (log 10 reduction of combination greater than sum of individual components)” value (C. albicans) does the source give for CCCCCCCOCC(O)CO (stereo not shown) [n-heptyl glyceryl ether] here?
The value was “synergistic antimicrobial effects”.

What about the “synergistic antimicrobial effect (log 10 reduction of combination greater than sum of individual components)” value (A. brasiliensis) of the same molecule?
The value was “synergistic antimicrobial effects”.

What about the “synergistic antimicrobial effect (log 10 reduction of combination greater than sum of individual components)” value (S. aureus) of the same molecule?
Its value is “synergistic antimicrobial effects”.

What about the solubility [1] of the same molecule?
The solubility was ~2000 µg/mL (≈ 10.5 mM).
